Read-outs that look alike come from different tables or passages of the source.

By EC50 is commonly meant the concentration that produces a half-maximal response.

This assay deals with T1, human RXFP1 (Homo sapiens, UniProt Q9HBX9).
T1 sequence (Q9HBX9 1-757): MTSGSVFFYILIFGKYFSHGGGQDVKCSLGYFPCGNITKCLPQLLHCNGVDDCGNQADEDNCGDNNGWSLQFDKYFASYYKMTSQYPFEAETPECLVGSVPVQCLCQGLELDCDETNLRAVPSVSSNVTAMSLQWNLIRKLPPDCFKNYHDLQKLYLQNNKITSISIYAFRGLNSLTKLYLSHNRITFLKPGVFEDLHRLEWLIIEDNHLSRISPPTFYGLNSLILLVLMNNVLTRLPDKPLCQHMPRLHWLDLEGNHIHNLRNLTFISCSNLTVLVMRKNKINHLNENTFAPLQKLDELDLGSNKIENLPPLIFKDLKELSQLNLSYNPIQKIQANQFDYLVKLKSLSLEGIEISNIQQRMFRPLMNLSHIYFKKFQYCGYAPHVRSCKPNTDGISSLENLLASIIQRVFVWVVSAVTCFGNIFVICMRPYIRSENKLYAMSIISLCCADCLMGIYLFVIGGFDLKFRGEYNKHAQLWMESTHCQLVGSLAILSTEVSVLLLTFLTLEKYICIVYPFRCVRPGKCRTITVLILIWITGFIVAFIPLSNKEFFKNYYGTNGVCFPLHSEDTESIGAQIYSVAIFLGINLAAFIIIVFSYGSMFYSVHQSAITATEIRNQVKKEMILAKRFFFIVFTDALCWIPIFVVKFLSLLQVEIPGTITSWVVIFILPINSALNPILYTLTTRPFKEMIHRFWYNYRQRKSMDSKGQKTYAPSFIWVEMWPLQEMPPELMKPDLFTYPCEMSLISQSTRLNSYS
The assay can be described thus: RXFP1 Hu cAMP (Test A). Also noted: expressed in transfected cells; host or cells: Jump-In T-REx CHO-K1 cells (ThermoFisher), induced with 10 ng/ml doxycycline for 24 h. The class given is cell-based. The method, boiled down: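 Cells: CHO-K1 stably carrying human RXFP1, expressed after 24 h 10 ng/ml doxycycline; 0.5 mM IBMX final, HTRF detection after 2 h at room temperature.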

The mark [1] stands for this setting: RXFP1 Hu cAMP, read-out: Test A EC50.

For the compound `COc1cc(C#N)c(O[C@H]2CC[C@@](C)(C(=O)O)CC2)cc1C(=O)Nc1cc(Cl)ccc1C(=O)NC[C@H]1C[C@@H](C)C1` [Example 159], the “Test A Sinf” value (RXFP1 Hu cAMP) is listed as 125%. Under setting [1], the EC50 turned out to be 78 nM.

Regarding `COc1cc(F)c(O[C@H]2CC[C@@](C)(C(=O)O)CC2)cc1C(=O)N[C@@H]1C[C@H](OC)C[C@@H]1C(=O)Nc1cccc(S(=O)(=O)C(F)(F)F)c1` (stereo in doubt) [Example 335], the “Test A Sinf” value (RXFP1 Hu cAMP) stood at 104%. In addition, the EC50 under setting [1] was determined as 540 nM.

As for `COc1cc(F)c(O[C@H]2CC[C@@](C)(C(=O)O)CC2)cc1C(=O)NC1COCC1C(=O)NCC(C)(C)C` (single isomer, unassigned) [Example 566, (1R,4s)-4-(2-Fluoro-4-methoxy-5-(((3S*,4R*)-4-(neopentylcarbamoyl)tetrahydrofuran-3-yl)carbamoyl)phenoxy)-1-methylcyclohexane-1-carboxylic acid], the half-maximal effective concentration (EC50) under setting [1] was > 40000 nM.

Consider `COc1cc(F)c(O[C@H]2CC[C@@](C)(C(=O)O)CC2)cc1C(=O)N[C@H]1[C@@H](C(=O)NCC2(C)CCC2)[C@H]2CC[C@@H]1O2` (racemic) [Example 331, (1R,4s)-4-(2-Fluoro-4-methoxy-5-(((1SR,2SR,3RS,4RS)-3-(((1-methylcyclobutyl)methyl)carbamoyl)-7-oxabicyclo[2.2.1]heptan-2-yl)carbamoyl)phenoxy)-1-methylcyclohexane-1-carboxylic acid], for which the “Test A Sinf” value (RXFP1 Hu cAMP) was 90%. Moreover, under setting [1], the EC50 worked out at 260 nM.

For `COc1cc(F)c(-c2ccc(C(=O)O)cc2)cc1C(=O)N[C@@H]1[C@H]2CC[C@H](C2)[C@@H]1C(=O)NCC(C)(C)C` [Example 304], for the setting “RXFP1 Hu cAMP”, the “Test A Sinf” value turned out to be 95%.

As for `COc1cc(F)c(O[C@H]2CC[C@@H](C(N)=O)CC2)cc1C(=O)N[C@@H]1[C@@H]2CC[C@@H](C2)[C@@H]1C(=O)Nc1cccc(S(F)(F)(F)(F)F)c1` [Example 511, (1S,2S,3R,4R)-3-(5-(((1s,4S)-4-Carbamoylcyclohexyl)oxy)-4-fluoro-2-methoxybenzamido)-N-(3-(pentafluoro-A6-sulfaneyl)phenyl)bicyclo[2.2.1]heptane-2-carboxamide], the “Test A Sinf” value (RXFP1 Hu cAMP) was found to be 117%. Also, the EC50 under setting [1] was 37 nM.

For `COc1cc(-c2cc(C(=O)N[C@@H]3[C@H]4CC[C@H](C4)[C@@H]3C(=O)Nc3cccc(S(=O)(=O)C(F)(F)F)c3)c(OC)cc2F)ccc1CCC(=O)O` [Example 259, 3-(2′-Fluoro-3,4′-dimethoxy-5′-(((1S,2R,3S,4R)-3-((3-((trifluoromethyl)sulfonyl)phenyl)carbamoyl)bicyclo[2.2.1]heptan-2-yl)carbamoyl)-[1,1′-biphenyl]-4-yl)propanoic acid], the “Test A Sinf” value (RXFP1 Hu cAMP) worked out at 97%. The concentration giving a half-maximal response (EC50) under setting [1] is 58 nM.

For the compound `COc1cc(F)c(-c2ccc(C(=O)O)cc2)cc1C(=O)N[C@@H]1[C@@H]2CC[C@@H](C2)[C@@H]1C(=O)Nc1cccc(S(=O)(=O)C(F)(F)F)c1` (racemic) [Example 303], the “Test A Sinf” value (RXFP1 Hu cAMP) turned out to be 114%. The EC50 under setting [1] worked out at 260 nM.

`COc1cc(C#N)c(O[C@H]2CC[C@@](C)(C(=O)O)CC2)cc1C(=O)NC1C2CCC(CC2)C1C(=O)NCC1(C)CCC1` (single isomer, unassigned) [Example 538, (1R,4s)-4-(2-Cyano-4-methoxy-5-(((2S*,3R*)-3-(((1-methylcyclobutyl)methyl)carbamoyl)bicyclo[2.2.2]octan-2-yl)carbamoyl)phenoxy)-1-methylcyclohexane-1-carboxylic acid]: under “RXFP1 Hu cAMP”, the “Test A Sinf” value was 100%. Further, the EC50 under setting [1] came out at 11000 nM.

As to `COc1cc(C#N)c(O[C@H]2CC[C@@](C)(C(=O)O)CC2)cc1C(=O)Nc1cc(Cl)ccc1C(=O)NCC(C)(C)F` [Example 164], under “RXFP1 Hu cAMP”, the “Test A Sinf” value is on record as 142%. Besides, the EC50 under setting [1] was found to be 130 nM.

As for `COc1cc(F)c(OC2CCC(N)(C(=O)O)CC2)cc1C(=O)N[C@@H]1[C@H]2CC[C@H](C2)[C@@H]1C(=O)Nc1cccc(S(=O)(=O)C(F)(F)F)c1` (stereo partly drawn) [Example 458, 1-Amino-4-(2-fluoro-4-methoxy-5-(((1S,2R,3S,4R)-3-((3-((trifluoromethyl)sulfonyl)phenyl)carbamoyl)bicyclo[2.2.1]heptan-2-yl)carbamoyl)phenoxy)cyclohexane-1-carboxylic acid], the “Test A Sinf” value (RXFP1 Hu cAMP) worked out at 104%. Moreover, the EC50 under setting [1] was found to be 110 nM.

For `COc1cc(C#N)c(O[C@H]2CC[C@@](C)(C(=O)O)CC2)cc1C(=O)N[C@@H]1[C@H]2CC[C@H](C2)[C@@H]1C(=O)N[C@@H](C)C(C)C` [Example 127], the “Test A Sinf” value (RXFP1 Hu cAMP) is given as 71%. For the same compound, the EC50 under setting [1] was 990 nM.

On to `COc1cc(F)c(O[C@H]2CC[C@@](C)(C(=O)O)CC2)cc1C(=O)N[C@@H]1CCOC[C@@H]1C(=O)Nc1cccc(S(=O)(=O)C(F)(F)F)c1` (racemic) [Example 341], for which, under “RXFP1 Hu cAMP”, the “Test A Sinf” value is reported as 86%. Under setting [1], the EC50 was determined as 200 nM.

For `COCc1cc(OC)c(C(=O)N[C@@H]2[C@H]3CC[C@H](C3)[C@@H]2C(=O)NCC2(C)CCC2)cc1O[C@H]1CC[C@@](C)(C(=O)O)CC1` [Example 402], for the setting “RXFP1 Hu cAMP”, the “Test A Sinf” value amounted to 131%. Further, where the note is “Test A EC50, RXFP1 Hu cAMP”, the midpoint of the response, the EC50, lay at 620 nM.

For the compound `COc1cc(F)c(-c2nnc(CCC(=O)O)s2)cc1C(=O)N[C@H]1C(C(=O)Nc2cccc(S(=O)(=O)C(F)(F)F)c2)[C@@H]2CC[C@H]1C2` (stereo partly drawn) [Example 322, 3-(5-(2-Fluoro-4-methoxy-5-(((1S,2R,3S,4R)-3-((3-((trifluoromethyl)sulfonyl)phenyl)carbamoyl)bicyclo[2.2.1]heptan-2-yl)carbamoyl)phenyl)-1,3-,4-thiadiazol-2-yl)propanoic acid], the “Test A Sinf” value (RXFP1 Hu cAMP) is 107%. The EC50 under setting [1] came to 800 nM.

For `COc1cc(F)c(-c2ccc(C(=O)O)nc2)cc1C(=O)N[C@H]1[C@@H](C(=O)Nc2cccc(S(=O)(=O)C(F)(F)F)c2)[C@@H]2C=C[C@H]1C2` (racemic) [Example 274, rac-5-(2-Fluoro-4-methoxy-5-(((1R,2R,3S,4S)-3-((3-((trifluoromethyl)sulfonyl)phenyl)carbamoyl)bicyclo[2.2.1]hept-5-en-2-yl)carbamoyl)phenyl)picolinic acid], for the setting “RXFP1 Hu cAMP”, the “Test A Sinf” value came to 61%. Moreover, under setting [1], the EC50 worked out at 5700 nM.

Turning to `COc1cc(F)c(OCc2ccccc2C(=O)O)cc1C(=O)N[C@H]1[C@@H](C(=O)Nc2cccc(S(=O)(=O)C(F)(F)F)c2)[C@@H]2C=C[C@H]1C2` (racemic) [Example 448, rac-2-((2-Fluoro-4-methoxy-5-(((1R,2R,3S,4S)-3-((3-((trifluoromethyl)sulfonyl)phenyl)carbamoyl)bicyclo[2.2.1]hept-5-en-2-yl)carbamoyl)phenoxy)methyl)benzoic acid], the “Test A Sinf” value (RXFP1 Hu cAMP) is 77%. Besides, the EC50 under setting [1] was 2600 nM.

`COc1cc(F)c(-c2ccc(C(=O)O)cc2)cc1C(=O)N[C@@H]1CCC[C@@H]1C(=O)Nc1cccc(S(=O)(=O)C(F)(F)F)c1` (racemic) [Example 299]: the “Test A Sinf” value (RXFP1 Hu cAMP) was 81%.

Take `COc1cc(F)c(OC2CCC(CO)(C(=O)O)CC2)cc1C(=O)NC1CC(OC)CC1C(=O)NCC1(C)CCC1` (single isomer, unassigned) [Example 551, (1R,4s)-4-(2-Fluoro-4-methoxy-5-(((1S*,2R*,4R*)-4-methoxy-2-(((1-methylcyclobutyl)methyl)carbamoyl)cyclopentyl)carbamoyl)phenoxy)-1-(hydroxymethyl)cyclohexane-1-carboxylic acid]: the “Test A Sinf” value (RXFP1 Hu cAMP) turned out to be 107%. Also, the EC50 under setting [1] amounted to 700 nM.

Consider `COc1cc(F)c(-c2ccc(OCC(=O)O)cc2)cc1C(=O)N[C@@H]1[C@H]2CC[C@H](C2)[C@@H]1C(=O)NCC(C)(C)C` [Example 330, 2-((2′-Fluoro-4′-methoxy-5′-(((1S,2R,3S,4R)-3-(neopentylcarbamoyl)bicyclo[2.2.1]heptan-2-yl)carbamoyl)-[1,1′-biphenyl]-4-yl)oxy)acetic acid], for which the “Test A Sinf” value (RXFP1 Hu cAMP) is listed as 97%. The EC50 under setting [1] came to 530 nM.

Consider `COc1cc(F)c(O[C@H]2CC[C@@](C)(C(=O)O)CC2)cc1C(=O)N[C@@H]1[C@H]2CC[C@H](C2)[C@@H]1C(=O)NCC(C)(C)CO` [Example 612], for which the “Test A Sinf” value (RXFP1 Hu cAMP) was found to be 119%.

On to `COc1cc(F)c(O[C@H]2CC[C@@H](C(=O)O)CC2)cc1C(=O)N[C@H]1[C@H]2CC[C@H](C2)[C@H]1C(=O)Nc1cccc(S(F)(F)(F)(F)F)c1` [Example 510, (1R,4s)-4-(2-Fluoro-4-methoxy-5-(((1S,2S,3R,4R)-3-((3-(pentafluoro-6-sulfaneyl)phenyl)carbamoyl)bicyclo[2.2.1]heptan-2-yl)carbamoyl)phenoxy)cyclohexane-1-carboxylic acid], for which the “Test A Sinf” value (RXFP1 Hu cAMP) was determined as 63%. Also, the EC50 under setting [1] was 1600 nM.

For the origin of these results see patent publication US11667602B2, “Compounds and their use” (AstraZeneca AB, priority 2020, dated 2023).
